From EP1247803A2, “Indolinone compounds suitable for modulation of protein kinases” (Sugen, Inc., priority 1996, dated 1998)

Tests used:
MET = MET biochemical kinase assay; set-up: species or system human; concentration or dose not given beside the values
Method in brief: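 Immunocaptured MET autophosphorylation, read colorimetrically (TMB) via HRP anti-phosphotyrosine antibody. Kinase reaction initiated with buffer containing ATP and divalent metals after compound addition to plate-bound receptor from lysates.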

EGFR = molecular target: T1, EGFR (Homo sapiens, UniProt P00533); test: EGFR ELISA assay (in vitro kinase activity, EGFR captured from A431 cell lysate); assay type: biochemical; set-up: concentration or dose not given beside the values
T1 construct: Add 7 ug A431 cell lysate per well (EGFR source); endogenous in cells; host or cells: A431
Method in brief: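 Receptor autophosphorylation was read by ELISA: anti-phosphotyrosine serum and an HRP-linked secondary with ABTS substrate, absorbance at 410 nm (reference 630 nm). The reaction ran 5 min with 3 µM ATP and 5 mM MnCl2 and was quenched by 20 mM EDTA. Compounds were first incubated 30 min with antibody-captured EGFR from A431 cell lysate.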

T1 sequence (P00533 25-1210): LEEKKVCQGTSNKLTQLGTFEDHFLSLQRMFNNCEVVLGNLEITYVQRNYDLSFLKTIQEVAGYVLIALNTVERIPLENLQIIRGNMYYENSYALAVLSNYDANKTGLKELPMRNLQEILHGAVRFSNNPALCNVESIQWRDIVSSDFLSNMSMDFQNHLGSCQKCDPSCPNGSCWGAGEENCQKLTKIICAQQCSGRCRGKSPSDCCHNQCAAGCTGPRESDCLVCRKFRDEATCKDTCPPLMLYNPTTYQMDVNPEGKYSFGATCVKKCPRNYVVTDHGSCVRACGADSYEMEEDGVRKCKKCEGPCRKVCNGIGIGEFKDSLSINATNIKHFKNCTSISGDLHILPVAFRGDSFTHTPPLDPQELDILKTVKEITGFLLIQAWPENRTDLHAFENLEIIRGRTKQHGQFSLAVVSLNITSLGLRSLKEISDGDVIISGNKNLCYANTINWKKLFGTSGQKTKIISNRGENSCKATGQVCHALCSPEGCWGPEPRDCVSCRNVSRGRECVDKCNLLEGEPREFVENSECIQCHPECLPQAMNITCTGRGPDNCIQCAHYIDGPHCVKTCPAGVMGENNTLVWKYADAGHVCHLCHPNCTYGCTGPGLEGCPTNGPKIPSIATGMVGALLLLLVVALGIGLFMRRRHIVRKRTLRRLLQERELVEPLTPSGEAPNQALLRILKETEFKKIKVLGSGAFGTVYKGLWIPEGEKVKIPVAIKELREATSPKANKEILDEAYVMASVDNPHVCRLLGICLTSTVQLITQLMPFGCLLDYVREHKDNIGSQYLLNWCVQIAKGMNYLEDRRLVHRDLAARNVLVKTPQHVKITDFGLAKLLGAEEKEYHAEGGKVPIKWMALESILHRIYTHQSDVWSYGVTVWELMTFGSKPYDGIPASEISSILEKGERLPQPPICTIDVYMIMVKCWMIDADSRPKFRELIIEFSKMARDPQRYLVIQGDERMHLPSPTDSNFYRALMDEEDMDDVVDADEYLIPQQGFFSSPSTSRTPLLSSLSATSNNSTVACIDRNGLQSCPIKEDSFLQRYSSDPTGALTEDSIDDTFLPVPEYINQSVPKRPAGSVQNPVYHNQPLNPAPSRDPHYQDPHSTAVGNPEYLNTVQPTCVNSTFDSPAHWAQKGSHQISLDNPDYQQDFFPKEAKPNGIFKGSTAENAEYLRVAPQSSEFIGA

Structure (SMILES) | Met Kinase % Inhibition (MET) | Biochem EGFR %Inhibition (EGFR)
O=C1Nc2ccc(CCCl)cc2C1=Cc1ccc(O)cc1 [10719/G07] | 24.0% | -8.1%
O=C1Nc2ccc(I)cc2C1=Cc1ncc[nH]1 [10720/B11] | 42.1% | 22.4%
O=C1Nc2c(Br)cc(Br)cc2C1=Cc1ccccc1 [10720/A06] | 63.6% | 44.7%
O=C1Nc2ccc(I)cc2C1=Cc1ccccc1O [10720/B05] | 51.8% | 58.4%
CNS(=O)(=O)c1ccc2c(c1)C(=Cc1ccc(O)cc1OC)C(=O)N2 [10720/D03] | 61.5% | 0.9%
CSc1ccc(C=C2C(=O)Nc3c(Br)cc(Br)cc32)s1 [10720/A07] | 57.2% | 42.5%
O=C1Nc2ccc(S(=O)(=O)N3CCOCC3)cc2C1=Cc1ccc(O)c(O)c1 [10719/F03] | 89.5% | -30.8%
CCOc1cc(C=C2C(=O)Nc3ccc(I)cc32)ccc1O [10720/B09] | 57.4% | 37.6%
O=C1Nc2ccc(CCCl)cc2C1=Cc1ccc(F)cc1Cl [10719/G09] | 1.3% | -32.8%
CNS(=O)(=O)c1ccc2c(c1)C(=Cc1ccc(O)cc1)C(=O)N2 [10719/D07] | 41.5% | 13.7%
O=C1Nc2ccc(I)cc2C1=Cc1c(F)cc(F)cc1F [10720/B02] | 38.8% | 18.4%
O=C1Nc2ccc(S(=O)(=O)N3CCOCC3)cc2C1=Cc1ccc(O)cc1 [10719/F07] | 36.7% | 20.1%
O=C1Nc2ccc(I)cc2C1=Cc1ccccc1 [10720/B06] | 55.1% | 21.2%
COc1cc(O)ccc1C=C1C(=O)Nc2c(Br)cc(Br)cc21 [10720/A03] | 58.2% | -5.3%
O=C1Nc2ccc(S(=O)(=O)Nc3ccc(C(F)(F)F)cc3)cc2C1=Cc1cccc([N+](=O)[O-])c1 [10719/E10] | 40.2% | -32.4%
CCc1c(C)[nH]c(C=C2C(=O)Nc3ccc(S(=O)(=O)Nc4ccc(C(F)(F)F)cc4)cc32)c1C [10719/E05] | 39.0% | 21.2%
CCOc1cc(C=C2C(=O)Nc3c(Br)cc(Br)cc32)ccc1O [10720/A09] | 75.4% | 8.6%
Cc1ccc(C=C2C(=O)Nc3ccc(I)cc32)s1 [10717/B07] | 90.0% | 58.3%
O=C1Nc2ccc(CCCl)cc2C1=Cc1ccc(O)c(O)c1 [10719/G03] | 87.6% | 89.5%
O=C1Nc2ccc(I)cc2C1=Cc1ccc(Br)cc1 [10717/B08] | 88.8% | 60.5%
